Columns and labels:
[1] = tested on: U251 monolayers; conditions: 2D U251 monolayers; cited from earlier work
[2] = tested on: Pat8 HGG neurospheres; assay: 3D matrigel invasion assay of patient-derived HGG neurospheres (Pat8); format: cell-based, human; conditions: 10-50 μM at embedding, refreshed daily, within 24 h, maintained through 48 h, relative to controls
Description: Pat8 and Pat9 HGG neurospheres were embedded in matrigel and allowed to invade. At embedding, neurospheres were treated with 10-50 μM IMM01 or IMM02 and refreshed daily. Images were captured at embedding (T0) and every 24 h. Invasion area was calculated as increase in area over T0 Pat9 or Pat8 neurosphere areas (FIGS. 3A-3B, respectively). Both Pat9 and Pat8 neurospheres robustly invaded through 48 h, similar to control vehicle-treated neurospheres.
(§1) Neurospheres formed spontaneously in isolated patient sample monolayer cells. Once spheres detach from monolayers, they were collected using wide-orifice pipette tips and moved to poly-HEMA (Sigma) coated U-bottom 96-well plates. Neurospheres were used upon reaching 200-250 μm diameter. Once neurospheres reached 350 μm, they were dissociated and re-plated in poly-HEMA U-bottom plates at 2000 cells/well.
3D invasion assays were as described. Briefly, a thin layer of 5 mg/ml GFR matrigel (Corning) was placed in 8-well chamber glasses (Lab-tek). Neurospheres were added and topped with thin-layer matrigel. Matrigel polymerized for 45 min at 37° C. before addition of 250 μl of media with IMMs. Invasions were imaged at time zero (T0) and every 24 h for experimental durations. Invaded spheroids/spontaneous neurospheres were imaged using an EVOS inverted microscope with an Olympus 4×UplanFL N0.13 PhP objective lens. […]

[3] = tested on: tumor microtubes (TMs) in Pat9 neurospheres; assay: Tumor microtube (TM) formation and length in neurosphere edge cells (IF, Metamorph); format: cell-based, human; conditions: for tumor TM length upon drug washout: 50 μM
Description: FIGS. 6A-6E: Tumor microtube shortening and amoeboid cell morphologies in IMM-treated HGG patient-derived neurospheres. […] Left-most boxes indicate areas of magnification shown. Scale bar (upper panel)=25 μm; (lower panel 100 μm). FIGS. 6B-6C show tumor TM lengths were measured using Metamorph software from cell nuclei to tumor TM ends. TMs measured from N>196 cells across three replicate experiments. TMs were measured in control (FIG. 6B), or drug washout experiments using 50 μM IMM01 or IMM02 where m=maintained drug and r=washout (FIG. 6C). Data are shown as scatter plots in FIGS. 6B-6C, or histograms (FIGS. 6B′, 6C′). […] FIGS. 6D, 6D′ show cellular morphologies measured in neurosphere edge cells and EI were calculated by dividing cell long by short axes, where EI=1 is a rounded cell, and E>1 is an elongated cell. N>196 cells across three replicate experiments. Data are shown as scatter plots (FIG. 6D, 6E), or histograms (FIG. 6D′, FIG. 6E′).
FIG. 11: Tumor TM measurements in HGG patient neurospheres. Pat9 neurospheres invaded for 96 h in matrigel in the presence of DMSO, 50 μM IMM01, or 50 μM IMM02. Tumor TMs were measured using Metamorph software by drawing lines (colored lines) along the length of tumor TMs from cell bodies to the end of the tumor TM using brightfield images.
IF was performed on fixed Pat9 neurospheres treated with or without IMMs for 96 h (FIGS. 5A-5B, respectively). mDia1, mDia2, F-actin, β-tubulin, or de-tyrosinated β-tubulin (glu-tubulin) were visualized (to assess stabilized microtubules). Invaded control neurospheres had diffuse invasive fronts, with extensive symmetrical invasion away from the central neurosphere core. Both mDia1 and mDia2 were diffusely cytoplasmic. […] Some cells were enriched in traditional parallel lamellar actin stress fibers and others with numerous radial F-actin-enriched filopodia-like structures (FIG. 8). […]
Cell protrusions were confirmed by IF to robustly express punctate Connexin-43 (FIG. 6A). […] Tumor TM length was measured in neurosphere edge cells in IMM-treated Pat9 neurospheres. […]

[4] = tested on: Pat9 HGG neurospheres; assay: 3D matrigel invasion assay of patient-derived HGG neurospheres (Pat9); format: cell-based, human; conditions: within 24 h; for neurosphere invasion (change in area over T0): 10-50 μM at embedding, refreshed daily, maintained through 48 h, relative to controls
Description: Pat8 and Pat9 HGG neurospheres were embedded in matrigel and allowed to invade. […] Images were captured at embedding (T0) and every 24 h. Invasion area was calculated as increase in area over T0 Pat9 or Pat8 neurosphere areas (FIGS. 3A-3B, respectively). Both Pat9 and Pat8 neurospheres robustly invaded through 48 h, similar to control vehicle-treated neurospheres.
It was previously shown in U87 spheroids that IMM invasion blockade was reversible. Whether IMM anti-invasion effects were reversible was assessed (FIGS. 4A-4B). Pat9 neurospheres were incubated with vehicle or IMMs for 48 h. Drug washouts were then performed with drug-free media and invasion continued for 48 h. As before, IMM removal released invasion suppression relative to neurospheres held in IMMs for 96 h. The live-dead cell dye Draq7 was then used on invading neurospheres treated with IMMs. […] Unexpectedly, when started at 48 h post-invasion in B27-treated control invading neurospheres, IMM treatment for 48 h thereafter induced robust cell death (FIG. 4C).
as §1
3D invasion assays were as described. Briefly, a thin layer of 5 mg/ml GFR matrigel (Corning) was placed in 8-well chamber glasses (Lab-tek). Neurospheres were added and topped with thin-layer matrigel. Matrigel polymerized for 45 min at 37° C. before addition of 250 μl of media with IMMs. Invasions were imaged at time zero (T0) and every 24 h for experimental durations. Invaded spheroids/spontaneous neurospheres were imaged using an EVOS inverted microscope with an Olympus 4×UplanFL N0.13 PhP objective lens. All measurements were completed with MetaMorph software (Molecular Devices).

[5] = tested on: mDia; conditions: cited from earlier work
[6] = tested on: p53; conditions: cited from earlier work

## CC(C)(C)NC(=S)N/N=C/c1ccc(O)cc1O [IMM01, 2-[(2,4-dihydroxyphenyl)methylene]-N-(1,1-dimethylethyl)-hydrazinecarbothioamide]
[1]
  cell cycle progression, apoptosis/multi-nucleation: neither changes in cell cycle progression, nor increases in apoptosis/multi-nucleation
[2]
  neurosphere invasion (change in area over T0): significantly halted invasion
[3]
  tumor TM length upon drug washout: recovered to controls
[4]
  neurosphere invasion (change in area over T0): significantly halted invasion
[5]
  mDia autoinhibition / F-actin polymerization: relieved mDia autoinhibition to induce F-actin polymerization

## C/C(=N\NC(=S)NC(C)(C)C)c1cc(F)cc(F)c1O [IMM02, N1-(tert-butyl)-2-[1-(3,5-difluoro-2-hydroxyphenyl)ethylidene]hydrazine-1-carbothioamide]
[1]
  cell cycle progression, apoptosis/multi-nucleation: neither changes in cell cycle progression, nor increases in apoptosis/multi-nucleation
[2]
  neurosphere invasion (change in area over T0): significantly halted invasion
[3]
  tumor TM length upon drug washout: recovered to controls
[4]
  neurosphere invasion (change in area over T0): significantly halted invasion
[5]
  mDia autoinhibition / F-actin polymerization: relieved mDia autoinhibition to induce F-actin polymerization

## O=C1NC(=S)N(c2cccc(Br)c2)C(=O)/C1=C/c1ccco1 [SMIFH2]
[6]
  p53 expression: downregulated p53 expression

## COC(=O)Nc1nc2ccc(C(=O)c3cccs3)cc2[nH]1 [nocadazole, nocodazole, reference compound]
[3]; 1 μM, within 24 h
  tumor TM formation: halted
[4]; 1 μM
  neurosphere invasion: halted

From patent US11547682B2, “Use of formin agonists in overcoming brain tumor radio- and chemo-resistance by targeting tumor microtubes” (The University of Toledo, priority 2019, dated 2023)
